# The source made the active and inactive calls.
# Experiments:
# [1] = target: T1, Tyrosine-protein phosphatase non-receptor type 7 (Homo sapiens, UniProt P35236); assay: SAR analysis of chemical inhibitors of HePTP using a Fluorescent assay - Set 2. [Related pubchem assays (depositor defined):AID1059, AID1077, AID1661, AID2085, AID521]; assay type: functional
# T1 sequence (P35236 whole entry): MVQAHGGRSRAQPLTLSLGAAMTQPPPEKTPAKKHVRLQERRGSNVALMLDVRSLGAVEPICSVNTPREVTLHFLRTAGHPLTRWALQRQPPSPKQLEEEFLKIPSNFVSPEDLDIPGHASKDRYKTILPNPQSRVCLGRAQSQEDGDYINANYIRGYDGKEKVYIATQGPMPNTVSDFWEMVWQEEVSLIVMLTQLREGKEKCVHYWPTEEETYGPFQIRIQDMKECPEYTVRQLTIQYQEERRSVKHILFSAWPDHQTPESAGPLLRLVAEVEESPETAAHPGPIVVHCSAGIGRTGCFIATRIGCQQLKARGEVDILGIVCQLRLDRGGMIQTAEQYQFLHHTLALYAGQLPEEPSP
# [2] = target: Dual specificity protein phosphatase 3 (Homo sapiens, UniProt P51452); assay: SAR VHR1 Fluorescent Assay for In Vitro dose response studies Set 2. [Related pubchem assays (depositor defined):AID1654, AID1661, AID1878]; assay type: functional
# [3] = target: Alkaline phosphatase, placental type (Homo sapiens, UniProt P05187); assay: human placental alkaline phosphatase inhibition – biochemical, luminescence, confirmation (AID 1512); assay type: functional
# [4] = Fluorescence-based cell-based high throughput dose response assay for inhibitors of the interaction of nucleotide-binding oligomerization domain containing 2 (NOD2) and the receptor-interacting serine-threonine kinase 2 (RIPK2).; assay type: functional; conditions: Homo sapiens
# [5] = target: T2, Rac GTPase-activating protein 1 (Homo sapiens, UniProt Q9H0H5); assay: blockers of MgcRacGAP-driven Rac1 GTP hydrolysis – biochemical, ADP Hunter fluorescence, primary and confirmatory, confirmation (AID 624330); assay type: functional
# T2 sequence (Q9H0H5 whole entry): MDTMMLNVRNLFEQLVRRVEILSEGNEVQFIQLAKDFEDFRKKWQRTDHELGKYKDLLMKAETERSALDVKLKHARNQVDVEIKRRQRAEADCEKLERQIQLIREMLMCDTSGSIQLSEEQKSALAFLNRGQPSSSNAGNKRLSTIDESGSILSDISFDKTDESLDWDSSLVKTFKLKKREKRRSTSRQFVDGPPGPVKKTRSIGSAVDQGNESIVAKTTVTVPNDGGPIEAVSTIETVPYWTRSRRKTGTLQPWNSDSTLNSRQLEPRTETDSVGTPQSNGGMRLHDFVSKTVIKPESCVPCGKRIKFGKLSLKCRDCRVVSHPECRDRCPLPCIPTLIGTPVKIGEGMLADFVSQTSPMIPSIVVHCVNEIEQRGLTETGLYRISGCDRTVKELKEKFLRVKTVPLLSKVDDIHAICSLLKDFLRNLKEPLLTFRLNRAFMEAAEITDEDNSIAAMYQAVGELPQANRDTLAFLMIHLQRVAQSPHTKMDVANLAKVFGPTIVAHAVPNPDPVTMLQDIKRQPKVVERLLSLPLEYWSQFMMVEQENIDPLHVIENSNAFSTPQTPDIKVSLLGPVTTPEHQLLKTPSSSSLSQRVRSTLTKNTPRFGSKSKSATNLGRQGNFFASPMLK
# [6] = target: T3, Polyadenylate-binding protein 1 (Homo sapiens, UniProt P11940); assay: MLLE domain peptide-binding blockers, IC50 – biochemical, fluorescence polarization, FITC-PAM2 peptide, dose response (AID 602259); assay type: functional; conditions: read-out: IC50_Mean
# [7] = viability loss in HeLa cells – cytotoxicity control for MgcRacGAP inhibitor project, dose response (AID 624300); assay type: functional
# [8] = target: DNA dC->dU-editing enzyme APOBEC-3A (Homo sapiens, UniProt P31941); assay: A3A deaminase inhibition for selectivity – biochemical, dose response (AID 504722); assay type: functional
# [9] = target: T4, Alkaline phosphatase, tissue-nonspecific isozyme (Homo sapiens, UniProt P05186); assay: potency against alkaline phosphatase TNAP – biochemical, luminescent, dose response, SAR follow-up (AID 1056)
# T4 sequence (P05186 whole entry): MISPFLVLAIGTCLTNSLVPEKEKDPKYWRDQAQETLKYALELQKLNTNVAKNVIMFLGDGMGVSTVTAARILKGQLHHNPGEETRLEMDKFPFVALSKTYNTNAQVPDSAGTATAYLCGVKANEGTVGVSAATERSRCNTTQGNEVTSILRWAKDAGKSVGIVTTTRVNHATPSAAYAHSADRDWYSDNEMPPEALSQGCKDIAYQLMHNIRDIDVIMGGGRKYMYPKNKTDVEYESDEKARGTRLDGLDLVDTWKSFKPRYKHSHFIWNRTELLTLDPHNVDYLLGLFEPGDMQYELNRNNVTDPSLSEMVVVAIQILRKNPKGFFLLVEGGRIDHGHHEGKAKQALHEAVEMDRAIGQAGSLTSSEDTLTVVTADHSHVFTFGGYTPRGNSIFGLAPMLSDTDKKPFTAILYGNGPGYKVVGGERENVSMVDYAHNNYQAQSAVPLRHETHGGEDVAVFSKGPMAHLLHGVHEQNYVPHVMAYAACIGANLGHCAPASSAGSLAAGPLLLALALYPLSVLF
# [10] = target: Mitochondrial peptide methionine sulfoxide reductase (Bos taurus, UniProt P54149); assay: Absorbance-based biochemical high throughput dose response assay for activators of Methionine sulfoxide reductase A (MsrA).; assay type: functional
# [11] = target: T5, Mannose-6-phosphate isomerase (Homo sapiens, UniProt P34949); assay: phosphomannose isomerase inhibition – biochemical, fluorescence intensity, confirmation (AID 1535)
# T5 sequence (P34949 whole entry): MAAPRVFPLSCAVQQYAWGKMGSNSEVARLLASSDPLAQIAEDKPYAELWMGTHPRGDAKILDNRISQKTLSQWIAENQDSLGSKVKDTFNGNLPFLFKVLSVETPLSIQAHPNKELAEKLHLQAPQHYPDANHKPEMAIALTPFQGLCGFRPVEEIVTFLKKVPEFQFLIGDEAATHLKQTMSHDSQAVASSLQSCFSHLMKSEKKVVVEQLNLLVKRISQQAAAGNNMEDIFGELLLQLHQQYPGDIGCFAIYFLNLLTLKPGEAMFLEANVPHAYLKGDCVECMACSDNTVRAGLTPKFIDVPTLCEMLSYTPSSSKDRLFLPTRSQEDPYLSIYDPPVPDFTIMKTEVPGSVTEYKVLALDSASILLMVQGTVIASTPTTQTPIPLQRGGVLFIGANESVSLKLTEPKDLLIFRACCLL
# Phosphomannomutase 2 = target: T6, Phosphomannomutase 2 (Homo sapiens, UniProt O15305); assay: Counter screen SAR assay for PMM2 inhibitors via a fluorescence intensity assay. [Related pubchem assays (depositor defined):AID1545, AID1574]
# T6 sequence (O15305 whole entry): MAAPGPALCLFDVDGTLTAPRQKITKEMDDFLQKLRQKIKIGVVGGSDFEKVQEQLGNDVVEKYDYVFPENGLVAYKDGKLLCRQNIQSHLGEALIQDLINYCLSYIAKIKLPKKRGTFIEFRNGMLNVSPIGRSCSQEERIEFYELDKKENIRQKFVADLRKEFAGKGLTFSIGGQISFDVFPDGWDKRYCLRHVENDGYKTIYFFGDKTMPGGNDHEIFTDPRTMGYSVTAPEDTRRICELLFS
# Beta Lactamase = Beta Lactamase (Pseudomonas aeruginosa, UniProt Q932Y6); assay: BLA reporter interference, concentration series – BLA reporter cells, FRET fluorescence, artefact control for NOD2-RIPK2 interaction inhibitor project, dose response (AID 651552); assay type: functional, cell-based
# [12] = target: T3, Polyadenylate-binding protein 1; assay: MLLE binding blockers, Cy5 peptide tracer – biochemical, fluorescence polarization, Cy5-PAM2 peptide, secondary, miRNA deadenylation inhibitor project, dose response (AID 602260); assay type: functional; conditions: read-out: IC50_Mean
# [13] = target: DNA dC->dU-editing enzyme APOBEC-3G (Homo sapiens, UniProt Q9HC16); assay: Dose Response confirmation of small molecule APOBEC3G DNA Deaminase Inhibitors via a fluorescence-based single-stranded DNA deaminase assay. [Related pubchem assays (depositor defined):AID493012, AID493028]; assay type: functional
# [14] = target: Phosphoethanolamine/phosphocholine phosphatase (Homo sapiens, UniProt Q8TCT1); assay: SAR assay for compounds that inhibit PHOSPHO1. [Related pubchem assays (depositor defined):AID1545, AID1565, AID1574]
# [15] = target: T7, Short transient receptor potential channel 4 (Mus musculus, UniProt Q9QUQ5); assay: potentiation of DAMGO-evoked TRPC4 calcium signal – cell-based, HEK293 TRPC4/mu-opioid, Fluo-4 calcium, EC20 DAMGO, dose response (AID 434941); assay type: functional
# T7 sequence (Q9QUQ5 whole entry): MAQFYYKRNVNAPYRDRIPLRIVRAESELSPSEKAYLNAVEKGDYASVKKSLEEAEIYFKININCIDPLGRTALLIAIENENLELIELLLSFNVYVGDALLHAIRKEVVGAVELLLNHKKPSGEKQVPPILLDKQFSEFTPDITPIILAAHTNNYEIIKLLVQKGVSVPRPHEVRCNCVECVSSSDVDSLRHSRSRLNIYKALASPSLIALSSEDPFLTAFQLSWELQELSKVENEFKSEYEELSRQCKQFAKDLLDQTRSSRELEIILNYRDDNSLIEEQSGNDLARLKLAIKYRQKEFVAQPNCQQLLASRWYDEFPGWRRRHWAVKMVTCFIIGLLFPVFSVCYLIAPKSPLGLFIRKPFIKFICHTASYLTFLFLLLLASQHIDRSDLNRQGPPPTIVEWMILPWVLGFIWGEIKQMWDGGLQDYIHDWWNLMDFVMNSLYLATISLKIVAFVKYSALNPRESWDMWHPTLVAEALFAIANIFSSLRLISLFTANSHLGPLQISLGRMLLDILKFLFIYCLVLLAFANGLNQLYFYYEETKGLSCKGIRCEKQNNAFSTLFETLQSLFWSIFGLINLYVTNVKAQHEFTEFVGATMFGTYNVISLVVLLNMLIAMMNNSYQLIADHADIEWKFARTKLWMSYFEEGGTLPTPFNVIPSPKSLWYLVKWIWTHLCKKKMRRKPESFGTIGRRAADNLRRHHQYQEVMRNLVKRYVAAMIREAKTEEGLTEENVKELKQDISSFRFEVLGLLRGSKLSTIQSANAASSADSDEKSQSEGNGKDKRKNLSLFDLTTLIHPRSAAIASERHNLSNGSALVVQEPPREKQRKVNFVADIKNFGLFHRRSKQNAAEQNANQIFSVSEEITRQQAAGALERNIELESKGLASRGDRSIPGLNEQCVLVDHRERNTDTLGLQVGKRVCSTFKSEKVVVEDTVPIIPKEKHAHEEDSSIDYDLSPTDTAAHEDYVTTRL
# [16] = target: Intestinal-type alkaline phosphatase (Homo sapiens, UniProt P09923); assay: activation of human intestinal alkaline phosphatase – biochemical, dose response (AID 488873); assay type: functional
# [17] = target: Intestinal-type alkaline phosphatase (Mus musculus, UniProt P24822); assay: PubChem AID 488785; assay type: functional
# [18] = target: T4, Alkaline phosphatase, tissue-nonspecific isozyme; assay: TNAP enzyme inhibition by screening hits, dose response, selectivity assay for mouse IAP inhibitor project, biochemical, human TNAP, uHTS hits (AID 488906); assay type: functional
# CAAX prenyl protease 2 = CAAX prenyl protease 2 (Saccharomyces cerevisiae S288c, UniProt Q03530); assay type: biochemical
# BJ [19] = assay: BJ-TERT-LT-ST fibroblast viability loss – cell-based, RAS-independent, luminescence, dose response (AID 1935); assay type: functional; conditions: Homo sapiens;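 also: BJ fibroblasts immortalized with TERT plus LT and ST oncogenes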
# [20] = fluconazole-exposed Candida albicans growth modulators – fluorescence, retest, confirmation (AID 2467); assay type: functional, cell-based
# [21] = DRD fibroblast viability loss – cell-based, non-viral oncogenic, luminescence, dose response (AID 1934); assay type: functional; conditions: Homo sapiens
# [22] = luciferase reporter signal suppression in cells – H4 neuroglioma cells, luminescence, dose response (AID 1990); assay type: functional, cell-based
# BJ [23] = assay: cells; assay type: functional, cell-based; conditions: Homo sapiens
# INS1 = assay: INS-1E survival protection against cytokine death – cell-based, luminescence, retest, dose response (AID 449756); assay type: functional; conditions: Rattus norvegicus;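 also: cell death triggered by IL-1 beta plus TNF-alpha plus IFN-gamma mixture; protective hits raise ATP signal compared with cytokine alone wells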
# BJ [24] = assay: BJ-TERT fibroblast viability loss – cell-based, RAS-independent, luminescence, dose response (AID 1933); assay type: functional; conditions: Homo sapiens
# [25] = Luminescence Cell-Based Dose Response HTS to Identify Inhibitors of 5'UTR Stem-Loop Driven Prion Protein mRNA Translation in H4 Neuroglioblastoma Cells. [Related pubchem assays: 1827 (Project Summary), 1813 (Primary HTS)]; assay type: functional
# [26] = NIH-3T3 fibroblast cytotoxicity, dose response, cytotoxicity control, cell-based, fluorescence, Alamar Blue, secondary assay (AID 2327); assay type: functional;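 also: NIH-3T3 mouse fibroblasts cultured with fluconazole at 8 µg/mL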
# [27] = alpha-synuclein stem-loop luciferase translation blockers – H4 neuroglioma cells, luminescence, confirmation (AID 1988); assay type: functional, cell-based
# T3 sequence (P11940 whole entry, the tested form may be a part): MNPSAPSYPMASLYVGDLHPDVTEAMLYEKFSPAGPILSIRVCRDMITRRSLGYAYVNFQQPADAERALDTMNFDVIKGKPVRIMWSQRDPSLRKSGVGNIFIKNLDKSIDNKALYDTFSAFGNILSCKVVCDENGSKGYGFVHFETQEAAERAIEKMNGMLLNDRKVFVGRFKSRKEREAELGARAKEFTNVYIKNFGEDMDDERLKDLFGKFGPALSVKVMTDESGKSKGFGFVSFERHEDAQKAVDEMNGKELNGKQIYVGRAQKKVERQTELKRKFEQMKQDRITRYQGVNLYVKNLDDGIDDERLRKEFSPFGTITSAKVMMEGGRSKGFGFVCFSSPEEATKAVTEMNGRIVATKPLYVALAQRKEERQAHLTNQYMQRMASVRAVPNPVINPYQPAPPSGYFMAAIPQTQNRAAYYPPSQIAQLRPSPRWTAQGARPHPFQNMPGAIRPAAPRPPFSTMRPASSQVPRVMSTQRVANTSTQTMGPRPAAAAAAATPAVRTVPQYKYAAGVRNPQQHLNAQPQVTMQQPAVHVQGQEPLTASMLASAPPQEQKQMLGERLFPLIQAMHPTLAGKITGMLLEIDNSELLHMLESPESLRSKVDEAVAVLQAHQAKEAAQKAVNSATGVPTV
# Chain of Dual specificity protein phosphatase 3 (P51452 whole entry): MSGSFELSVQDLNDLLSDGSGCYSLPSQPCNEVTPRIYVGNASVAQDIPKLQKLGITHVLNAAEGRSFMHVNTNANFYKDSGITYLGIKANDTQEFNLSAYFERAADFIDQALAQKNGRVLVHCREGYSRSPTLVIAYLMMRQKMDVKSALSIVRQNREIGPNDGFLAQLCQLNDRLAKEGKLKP
# Chain of DNA dC->dU-editing enzyme APOBEC-3G (Q9HC16 whole entry): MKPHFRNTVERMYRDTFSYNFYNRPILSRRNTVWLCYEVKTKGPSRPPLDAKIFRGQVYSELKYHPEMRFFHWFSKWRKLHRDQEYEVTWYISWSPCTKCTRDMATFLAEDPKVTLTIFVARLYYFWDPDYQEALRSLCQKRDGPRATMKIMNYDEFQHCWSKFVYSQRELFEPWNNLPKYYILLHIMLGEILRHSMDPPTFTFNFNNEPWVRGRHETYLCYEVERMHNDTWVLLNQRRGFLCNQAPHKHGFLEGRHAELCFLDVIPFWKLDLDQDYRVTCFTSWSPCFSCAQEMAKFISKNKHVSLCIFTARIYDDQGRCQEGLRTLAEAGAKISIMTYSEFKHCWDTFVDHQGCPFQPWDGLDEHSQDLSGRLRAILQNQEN
# Chain of DNA dC->dU-editing enzyme APOBEC-3A (P31941 whole entry): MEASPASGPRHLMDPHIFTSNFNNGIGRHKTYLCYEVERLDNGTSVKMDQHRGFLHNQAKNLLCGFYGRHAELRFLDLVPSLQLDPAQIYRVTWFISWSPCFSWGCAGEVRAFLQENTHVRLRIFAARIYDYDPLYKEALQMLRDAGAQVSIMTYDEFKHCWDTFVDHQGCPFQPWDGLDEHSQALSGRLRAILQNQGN
# Chain of Intestinal-type alkaline phosphatase (Mus musculus, UniProt P24822) (P24822 whole entry): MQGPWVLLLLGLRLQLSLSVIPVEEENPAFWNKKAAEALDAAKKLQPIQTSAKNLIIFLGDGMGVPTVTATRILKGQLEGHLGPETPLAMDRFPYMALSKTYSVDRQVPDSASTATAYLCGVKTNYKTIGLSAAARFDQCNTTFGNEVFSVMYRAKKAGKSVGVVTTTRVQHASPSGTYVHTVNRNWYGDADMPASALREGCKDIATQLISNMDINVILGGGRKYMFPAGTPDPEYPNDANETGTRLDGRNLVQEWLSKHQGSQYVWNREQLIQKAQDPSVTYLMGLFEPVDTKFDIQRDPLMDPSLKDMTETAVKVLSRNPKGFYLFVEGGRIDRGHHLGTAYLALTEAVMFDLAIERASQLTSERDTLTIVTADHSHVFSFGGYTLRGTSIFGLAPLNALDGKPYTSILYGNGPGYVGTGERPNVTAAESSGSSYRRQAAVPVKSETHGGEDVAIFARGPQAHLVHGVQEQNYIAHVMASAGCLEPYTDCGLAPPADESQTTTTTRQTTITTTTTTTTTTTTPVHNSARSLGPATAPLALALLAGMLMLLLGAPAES
# Chain of Phosphoethanolamine/phosphocholine phosphatase (Q8TCT1 whole entry): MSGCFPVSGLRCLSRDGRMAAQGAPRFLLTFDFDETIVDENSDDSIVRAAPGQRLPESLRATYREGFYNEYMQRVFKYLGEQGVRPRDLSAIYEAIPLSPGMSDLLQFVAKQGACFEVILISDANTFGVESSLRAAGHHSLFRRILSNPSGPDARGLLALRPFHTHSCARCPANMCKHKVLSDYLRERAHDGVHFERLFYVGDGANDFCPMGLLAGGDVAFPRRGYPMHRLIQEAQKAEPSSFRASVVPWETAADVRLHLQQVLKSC
# Chain of CAAX prenyl protease 2 (Q03530 whole entry): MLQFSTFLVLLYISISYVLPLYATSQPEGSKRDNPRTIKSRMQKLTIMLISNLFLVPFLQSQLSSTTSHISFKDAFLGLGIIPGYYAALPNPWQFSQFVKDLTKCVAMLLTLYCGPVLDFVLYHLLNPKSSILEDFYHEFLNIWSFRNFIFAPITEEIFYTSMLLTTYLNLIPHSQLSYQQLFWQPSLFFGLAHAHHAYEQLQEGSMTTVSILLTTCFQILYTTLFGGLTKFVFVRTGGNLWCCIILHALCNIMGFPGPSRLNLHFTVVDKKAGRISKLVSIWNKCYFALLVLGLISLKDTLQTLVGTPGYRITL
# Chain of Mitochondrial peptide methionine sulfoxide reductase (P54149 whole entry): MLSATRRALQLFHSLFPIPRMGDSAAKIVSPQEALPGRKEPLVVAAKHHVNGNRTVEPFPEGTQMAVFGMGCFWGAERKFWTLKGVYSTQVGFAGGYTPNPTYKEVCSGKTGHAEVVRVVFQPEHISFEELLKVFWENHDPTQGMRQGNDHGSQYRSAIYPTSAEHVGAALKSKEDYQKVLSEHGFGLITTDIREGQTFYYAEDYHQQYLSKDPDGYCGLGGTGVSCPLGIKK
# Chain of Intestinal-type alkaline phosphatase (Homo sapiens, UniProt P09923) (P09923 whole entry): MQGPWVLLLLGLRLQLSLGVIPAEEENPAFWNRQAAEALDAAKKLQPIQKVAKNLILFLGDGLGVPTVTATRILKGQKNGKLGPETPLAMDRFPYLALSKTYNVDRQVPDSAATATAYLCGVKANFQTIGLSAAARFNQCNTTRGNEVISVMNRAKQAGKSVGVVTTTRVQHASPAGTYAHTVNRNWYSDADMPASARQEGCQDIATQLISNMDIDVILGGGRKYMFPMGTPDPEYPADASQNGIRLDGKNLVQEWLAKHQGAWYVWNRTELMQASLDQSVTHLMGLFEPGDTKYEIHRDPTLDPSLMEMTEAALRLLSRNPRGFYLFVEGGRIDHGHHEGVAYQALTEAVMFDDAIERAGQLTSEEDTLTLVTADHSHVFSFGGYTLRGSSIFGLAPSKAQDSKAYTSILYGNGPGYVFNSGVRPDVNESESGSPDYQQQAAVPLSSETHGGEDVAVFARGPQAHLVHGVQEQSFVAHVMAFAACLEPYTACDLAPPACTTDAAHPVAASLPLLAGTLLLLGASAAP
# Chain of Beta Lactamase (Q932Y6 whole entry): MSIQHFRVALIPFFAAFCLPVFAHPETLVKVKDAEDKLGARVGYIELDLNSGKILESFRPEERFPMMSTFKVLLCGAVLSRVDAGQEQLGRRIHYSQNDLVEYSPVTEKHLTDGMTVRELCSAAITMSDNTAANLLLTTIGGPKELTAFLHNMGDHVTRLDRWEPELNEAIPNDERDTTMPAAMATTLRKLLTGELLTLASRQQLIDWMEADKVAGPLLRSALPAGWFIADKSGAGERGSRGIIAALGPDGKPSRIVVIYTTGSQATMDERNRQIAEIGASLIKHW
# Chain of Alkaline phosphatase, placental type (P05187 whole entry, the tested form may be a part): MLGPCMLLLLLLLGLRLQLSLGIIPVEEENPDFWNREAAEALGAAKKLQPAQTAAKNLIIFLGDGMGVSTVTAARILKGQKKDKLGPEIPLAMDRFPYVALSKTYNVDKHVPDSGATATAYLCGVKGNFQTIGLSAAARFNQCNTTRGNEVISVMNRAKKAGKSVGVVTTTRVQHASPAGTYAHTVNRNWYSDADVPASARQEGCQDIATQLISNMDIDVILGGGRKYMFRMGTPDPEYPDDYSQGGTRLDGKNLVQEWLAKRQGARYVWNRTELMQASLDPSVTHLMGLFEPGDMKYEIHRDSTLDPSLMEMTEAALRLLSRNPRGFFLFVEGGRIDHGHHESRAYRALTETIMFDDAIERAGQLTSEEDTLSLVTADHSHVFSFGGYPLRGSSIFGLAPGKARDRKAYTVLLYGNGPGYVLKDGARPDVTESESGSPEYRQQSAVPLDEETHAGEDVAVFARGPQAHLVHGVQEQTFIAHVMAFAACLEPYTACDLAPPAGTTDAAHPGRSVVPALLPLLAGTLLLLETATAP
smiles,measurement,setting,value
Cc1ccc(NC(S)=NNC(=O)c2c(Cl)c(C)nn2C)cc1,IC50,[1],> 100 µM (inactive)
same,IC50,[2],> 100 µM (inactive)
same,IC50,[3],> 100 µM (inactive)
O=c1c2ccccc2sn1-c1ccc(F)cc1,IC50,[4],5.1 µM (active)
same,IC50,[5],39.3 µM (active)
same,IC50,[6],> 66 µM (inactive)
same,CC50,[7],77.3 µM (active)
same,IC50,[8],> 100 µM (inactive)
same,IC50,[9],> 100 µM (inactive)
same,EC50,[10],98.5 µM (inactive)
same,IC50,[11],1.49 µM (active)
same,IC50,Phosphomannomutase 2,18.1 µM (active)
same,IC50,Beta Lactamase,29.5 µM (inactive)
same,IC50,[12],> 66 µM (inactive)
same,IC50,[13],12.4 µM (active)
same,IC50,[14],4.85 µM (inactive)
CC1=C(C(=O)NCc2ccccc2)C(c2cc(Br)cc(Br)c2OC(C)C)NC(=O)N1 (stereo unspecified),EC50,[15],4.22 µM (active)
CC1(C(=O)NNC(=O)c2ccc(=O)oc2)CC1Br (stereo unspecified),EC50,[16],> 100 µM (inactive)
same,IC50,[17],11 µM (active)
same,IC50,[18],> 100 µM (inactive)
Cc1ccc(-c2cc(-c3ccccc3)cc(-c3ccccc3)[n+]2-c2ccccc2)cc1.[O-][Cl+3]([O-])([O-])[O-],AC50,CAAX prenyl protease 2,29.1 µM (active)
same,EC50,BJ [19],4.96 µM (active)
same,EC50,[20],0.378 µM (active)
same,EC50,[21],6.7 µM (active)
same,EC50,[22],> 120 µM (not active)
same,EC50,BJ [23],7.64 µM (active)
same,AC50,INS1,1.89 µM (active)
same,EC50,BJ [24],4.34 µM (active)
same,EC50,[25],> 120 µM (not active)
same,EC50,[26],43.8 µM (active)
same,EC50,[27],10.7 µM (active)
